Measured values published in ChEMBL document CHEMBL1155767, “Three new sesquiterpene glycosides from Dendrobium nobile with immunomodulatory activity” (2001).

Assays:
Assay type in all cases: functional
[1] = tested on: Lymphocyte; assay: Immunomodulatory activity in concanavalin A-stimulated mouse lymphocytes assessed as proliferative optical density at 0.1 uM after 48 hrs by MTT assay (Rvb=0.47+/-0.01)
[2] = tested on: Lymphocyte; assay: Immunomodulatory activity in LPS-stimulated mouse lymphocytes assessed as proliferative optical density at 0.1 uM after 48 hrs by MTT assay (Rvb=0.45+/-0.01)
[3] = tested on: Lymphocyte; assay: Immunomodulatory activity in concanavalin A-stimulated mouse lymphocytes assessed as proliferative optical density at 1 uM after 48 hrs by MTT assay (Rvb=0.47+/-0.01)
[4] = tested on: Lymphocyte; assay: Immunomodulatory activity in LPS-stimulated mouse lymphocytes assessed as proliferative optical density at 1 uM after 48 hrs by MTT assay (Rvb=0.45+/-0.01)
[5] = tested on: Lymphocyte; assay: Immunomodulatory activity in concanavalin A-stimulated mouse lymphocytes assessed as proliferative optical density at 10 uM after 48 hrs by MTT assay (Rvb=0.47+/-0.01)
[6] = tested on: Lymphocyte; assay: Immunomodulatory activity in LPS-stimulated mouse lymphocytes assessed as proliferative optical density at 10 uM after 48 hrs by MTT assay (Rvb=0.45+/-0.01)
[7] = tested on: Lymphocyte; assay: Immunomodulatory activity in concanavalin A-stimulated mouse lymphocytes assessed as proliferative optical density at 0.1 uM after 48 hrs by MTT assay (Rvb=0.80+/-0.02)
[8] = tested on: Lymphocyte; assay: Immunomodulatory activity in LPS-stimulated mouse lymphocytes assessed as proliferative optical density at 0.1 uM after 48 hrs by MTT assay (Rvb=0.56+/-0.03)
[9] = tested on: Lymphocyte; assay: Immunomodulatory activity in concanavalin A-stimulated mouse lymphocytes assessed as proliferative optical density at 1 uM after 48 hrs by MTT assay (Rvb=0.80+/-0.02)
[10] = tested on: Lymphocyte; assay: Immunomodulatory activity in LPS-stimulated mouse lymphocytes assessed as proliferative optical density at 1 uM after 48 hrs by MTT assay (Rvb=0.56+/-0.03)
[11] = tested on: Lymphocyte; assay: Immunomodulatory activity in concanavalin A-stimulated mouse lymphocytes assessed as proliferative optical density at 10 uM after 48 hrs by MTT assay (Rvb=0.80+/-0.02)
[12] = tested on: Lymphocyte; assay: Immunomodulatory activity in LPS-stimulated mouse lymphocytes assessed as proliferative optical density at 10 uM after 48 hrs by MTT assay (Rvb=0.56+/-0.03)

| Compound | OD [1] | OD [2] | OD [3] | OD [4] | OD [5] | OD [6] | OD [7] | OD [8] | OD [9] | OD [10] | OD [11] | OD [12] |
| --- | --- | --- | --- | --- | --- | --- | --- | --- | --- | --- | --- | --- |
| CC(C)[C@H]1CC[C@]2(C)[C@@H](CO[C@@H]3O[C@H](CO)[C@@H](O)[C@H](O)[C@H]3O)CC[C@@H]2[C@@H]1CO[C@@H]1O[C@H](CO)[C@@H](O)[C@H](O)[C@H]1O [DENDRONOBILOSIDE A] | 0.46 | 0.49 | 0.53 | 0.5 | 0.6 | 0.56 | – | – | – | – | – | – |
| CC(C)[C@H]1CC[C@@]2(C)[C@H](CC[C@]2(O)CO)[C@@H]1CO[C@@H]1O[C@H](CO)[C@@H](O)[C@H](O)[C@H]1O [DENDRONOBILOSIDE B] | – | – | – | – | – | – | 0.68 | 0.54 | 0.68 | 0.51 | 0.71 | 0.57 |
| C[C@@H]1CC[C@H]2[C@@H]1[C@H]1[C@@H](CC[C@@]2(O)CO[C@@H]2O[C@H](CO)[C@@H](O)[C@H](O)[C@H]2O)[C@@]1(C)CO [DENDROSIDE A] | 0.64 | 0.45 | 0.62 | 0.52 | 0.5 | 0.45 | – | – | – | – | – | – |
